Where two headings read alike, the source gives them in different places.
Columns and labels:
[1] = biological target: T1, human recombinant COX2 (hCOX2) (UniProt P35354); test: LCMS-based COX2 enzymatic inhibition assay (PGE2 quantification); format: biochemical; parameters: COX2 2 minutes pge2/pge2d4 area ratio Avg; other: 2 minutes; readout pge2/pge2d4 area ratio; average; COX2 2 minutes pge2/pge2d4 area ratio Avg; LLE; average LLE; COX2 2 minutes pge2 area (counts) Avg; readout pge2 area (counts); other: 2 min; "ovine COX2 (oCOX2), human recombinant COX2 (hCOX2)"; settings: for COX2 2 minutes pge2/pge2d4 area ratio Avg. LLE / COX2 2 minutes pge2 area (counts) Avg. LLE / COX2 10 minutes pge2 area (counts) Avg. LLE / COX2 30 minutes pge2 area (counts) Avg. LLE: average LLE; for IC50: average
T1 sequence (P35354 1-604): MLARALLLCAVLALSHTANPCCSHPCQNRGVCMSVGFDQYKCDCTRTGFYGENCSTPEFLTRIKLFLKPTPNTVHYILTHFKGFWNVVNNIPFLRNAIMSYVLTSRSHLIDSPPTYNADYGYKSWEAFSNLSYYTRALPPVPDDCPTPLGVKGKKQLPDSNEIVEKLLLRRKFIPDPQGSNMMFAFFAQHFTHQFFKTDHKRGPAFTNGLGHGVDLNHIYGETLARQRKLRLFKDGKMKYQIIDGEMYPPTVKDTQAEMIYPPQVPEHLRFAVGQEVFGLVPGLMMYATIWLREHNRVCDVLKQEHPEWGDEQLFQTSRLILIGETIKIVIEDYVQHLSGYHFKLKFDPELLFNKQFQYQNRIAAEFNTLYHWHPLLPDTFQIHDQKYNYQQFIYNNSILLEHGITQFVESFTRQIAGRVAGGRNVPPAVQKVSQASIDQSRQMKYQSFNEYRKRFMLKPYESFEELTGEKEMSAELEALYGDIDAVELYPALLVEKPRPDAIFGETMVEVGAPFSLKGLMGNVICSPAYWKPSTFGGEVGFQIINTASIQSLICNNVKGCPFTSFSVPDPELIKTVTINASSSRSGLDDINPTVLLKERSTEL
Method in brief: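 PGE2 formed from arachidonic acid (final 5 μM, 2 min) was measured by LC-MS-MS against DMSO controls. Enzyme (oCOX-1 0.1 μg or hCOX2 0.2 μg) with hematin/epinephrine cofactors at pH 8.0 was given 10 min at 37 °C with compound first. Twelve-point curves run three times gave IC50.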

[2] = Human Microsome Stability; format: in vitro ADME; settings: human microsomes
[3] = Human Plasma Protein Stability (% Remaining); format: in vitro ADME; settings: average
[4] = rat plasma protein binding (PPB) assay; format: in vitro ADME; settings: average, read-out: Rat Plasma Protein Binding % Bound Avg (converted)
Method in brief: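 Non-specific binding is assessed by in vitro protein binding experiments that yield the free fraction. Species and matrix differ by assay: mouse brain for BPB, and mouse, rat and human plasma for PPB.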

[5] = human plasma protein binding (PPB) assay; format: in vitro ADME; settings: average, read-out: Human Plasma Protein Binding % Bound Avg (converted)
Experimental: We have adapted a previously reported cyclooxygenase enzymatic assay utilizing LCMS quantification of PGE2 as the product of COX-1 and COX2 catalyzed conversion of arachidonic acid to evaluate the binding properties of newly synthesized ligands [Cao, 2011]. These optimized and miniaturized (384-well plates) LCMS-based COX-1 and COX2 enzymatic assays enabled us to quickly evaluate newly synthesized ligands for COX2 binding affinity and selectivity vs COX-1. Using a shorter ligand-enzyme incubation time in the LCMS assay (2 minutes vs 10 minutes) also permitted us to prioritize ligands with faster binding kinetics. Considering the relatively slow on-rate kinetics of known coxibs, due to their 3-step binding mechanism [Marnett, 2009], we believe that optimizing this critical parameter will be key to the successful development of a COX2 PET tracer. Using these enzymatic assays, we have evaluated>200 newly synthesized ligands against COX2 and >20 ligands against COX-1. Another critical property necessary for a good PET radiotracer is to have low non-specific binding (NSB) to increase the free fraction and maximize the signal to noise ratio. This property can be evaluated using in-vitro protein binding assays, and we have now evaluated>50 newly synthesized ligands in mouse, rat and human plasma protein binding (PPB) assays as well as >15 ligands in a mouse brain protein binding (BPB) assay.

[6] = Rat Plasma Protein Stability (% Remaining); format: in vitro ADME; settings: average
[7] = Mouse Plasma Protein Stability (% Remaining); format: in vitro ADME; settings: average
[8] = 2 minutes, readout pge2/pge2d4 area ratio
[9] = 2 minutes, readout pge2/pge2d4 area ratio, read-out: COX2 2 minutes pge2/pge2d4 area ratio Avg. IC50
[10] = 2 minutes, readout pge2 area (counts)
[11] = 2 minutes, readout pge2 area (counts), read-out: COX2 2 minutes pge2 area (counts) Avg. IC50
[12] = 10 minutes, readout pge2 area (counts)
[13] = 10 minutes, readout pge2 area (counts), read-out: COX2 10 minutes pge2 area (counts) Avg. IC50
[14] = 30 minutes, readout pge2 area (counts)
[15] = 30 minutes, readout pge2 area (counts), read-out: COX2 30 minutes pge2 area (counts) Avg. IC50

Row | Structure (SMILES) | COX2 2 minutes pge2/pge2d4 area ratio Avg. LLE [1, 8] | IC50 [1, 9] [nM] | COX2 2 minutes pge2 area (counts) Avg. LLE [1, 10] | IC50 [1, 11] [nM] | COX2 10 minutes pge2 area (counts) Avg. LLE [1, 12] | IC50 [1, 13] [nM] | COX2 30 minutes pge2 area (counts) Avg. LLE [1, 14] | IC50 [1, 15] [nM] | Human Microsome Stability % Remaining Avg [2] [%] | Human Plasma Protein Stability % Remaining Avg [3] [%] | fraction unbound [4] | fraction unbound [5] | Rat Plasma Protein Stability % Remaining Avg [6] [%] | Mouse Plasma Protein Stability % Remaining Avg [7] [%]
1 | CS(=O)(=O)c1ccc(-c2cncc(NCc3cccs3)n2)cc1 [Compound 98] | 5.067 | 76 | 5.168 | 61.6 | 6.195 | 5.57 | 6.4321 | 2.74 | 23.8 | – | – | – | – | –
2 | CS(=O)(=O)c1ccc(-c2ccc(F)c(NCc3ccoc3)n2)cc1 [Compound 33] | 4.757 | 16.4 | 4.796 | 15.1 | – | – | – | – | 40 | 100 | 0.025 | 0.029 | 128 | –
3 | CS(=O)(=O)c1ccc(-c2cc(F)cc(NCc3ccoc3)n2)cc1 [Compound 34] | 4.826 | 16.4 | 4.752 | 18.3 | – | – | – | – | 48 | 100 | 0.025 | 0.027 | 115 | –
4 | COc1cc(NCc2cccs2)nc(-c2ccc(S(C)(=O)=O)cc2)c1 [Compound 50] | 4.261 | 22.8 | 4.341 | 20 | 4.996 | 5 | 5.9869 | 0.416 | – | – | – | – | – | 98.9
5 | CS(=O)(=O)c1ccc(-c2cccc(OCc3ccoc3)n2)cc1 [Compound 16] | 4.9079 | 9.12 | 4.932 | 8.71 | – | – | – | – | 24 | 121 | 0.031 | 0.049 | 97.9 | 102
6 | CS(=O)(=O)c1ccc(-c2cccc(/C=C\c3ccoc3)n2)cc1 [Compound 35, 2-[(Z)-2-(furan-3-yl)ethenyl]-6-(4-methanesulfonylphenyl)pyr] | 4.232 | 17.2 | 4.214 | 17.4 | – | – | – | – | 19 | 97 | 0.052 | 0.024 | 94.1 | 99.2
7 | CS(=O)(=O)c1ccc(-c2cncc(OCc3cccs3)n2)cc1 [Compound 19] | 5.643 | 10.2 | 5.681 | 9.01 | 6.3861 | 1.5 | – | – | – | 92.4 | 0.015 | 0.015 | 91.1 | 92.8
8 | CS(=O)(=O)c1ccc(-c2cccc(NCc3ccc(F)o3)n2)cc1 [Compound 23] | 4.592 | 11.4 | 4.619 | 10.7 | – | – | – | – | 11 | 97 | 0.046 | 0.028 | 104 | –
9 | Cc1occc1CNc1cccc(-c2ccc(S(C)(=O)=O)cc2)n1 [Compound 21] | 4.818 | 10.9 | 4.716 | 13.9 | – | – | – | – | 36 | 99 | 0.042 | 0.026 | 100 | –
10 | CS(=O)(=O)c1ccc(-c2ccc(F)c(NCc3ccco3)n2)cc1 [Compound 15] | 5.1257 | 8.91 | 5.098 | 9.62 | – | – | – | – | 45.5 | 108 | 0.02 | 0.022 | 127 | –
11 | COc1ccc(NCc2cccs2)nc1-c1ccc(S(C)(=O)=O)cc1 [Compound 17] | 4.653 | 9.62 | 4.644 | 9.92 | – | – | – | – | – | 95 | 0.047 | 0.022 | 100 | 102
12 | COc1ncc(NCc2ccoc2)nc1-c1ccc(S(C)(=O)=O)cc1 [Compound 44] | 5.722 | 19.6 | 5.725 | 20.1 | – | – | – | – | – | – | 0.044 | – | 104.6 | 105.7

From patent publication US20220348590A1, “CYCLOOXYGENASE-2 INHIBITORS AND USES THEREOF” (The Board Institute, Inc., priority 2019, published 2022)
